Source: US11712457B2, “Syringa pubescens microphylla seed extract composition and its application in antibiotic-resistant infections” (SHAANXI UNIVERSITY OF SCIENCE AND TECHNOLOGY, priority 2020, dated 2023)

Assays:
Experiment in all cases: Paper diffusion drug sensitivity test (zone of inhibition)
Type in all cases: cell-based
[1] = test system: Staphylococcus aureus (SAU); conditions: LB agar, 37° C., 24 h, control drugs 30 μg/tablet, extract 128 μg/tablet, ≥17 mm sensitive, 15-16 mm intermediate, ≤14 mm resistant
Method: (§1) The bacteriostatic activity test experiment was carried out on the Syringa pubescens microphylla extract of the present invention, and the bacteriostatic effect was determined by a paper diffusion drug sensitivity method.
(§2) Experimental strains: Staphylococcus aureus (SAU), multi-drug resistant Staphylococcus aureus 18-206, multi-drug resistant Pseudomonas aeruginosa 18-261. The experimental strains were provided by Huashan Hospital, Fudan University (Institute of Antibiotics, Fudan University).
(§3) Drug sensitive paper: The drug sensitive paper is a special drug sensitive paper with a diameter of 6.35 mm and a water absorption of 0.02 mL. The control drugs were cefazolin sodium (30 μg/tablet), vancomycin (30 μg/tablet) and gentamicin (30 μg/tablet); the test drug was the Syringa pubescens microphylla extract (128 μg/tablet).
(§4) The experimental strains were inoculated in a non-selective medium and incubated in air at 37 C for 24 hours. A single colony was selected and inoculated into a broth medium, and incubated at 35±2° C. for 6 hours. LA broth medium was used to correct the concentration of the bacterial solution to 1.5×10^8 CFU/mL to obtain a bacterial suspension.
(§5) Weighing LB dry powder, autoclaving at 103.4 Kpa, 121.3° C. for 15 min, then placing in a 40° C.-50° C. water bath. Sterile empty plates (with an inner diameter of 9 cm) were placed on a water platform of the ultra-clean table. LB solution was poured to the plates, with agar thickness of 3 mm-4 mm. After the plates were cooled at room temperature, they were stored in a refrigerator at 2° C. to 8° C. Bacteria liquid was spread evenly with a sterile cotton swab on the surface of the LB plate 3 times. The LB plate was dried at room temperature for 3 min to 5 min. An antibacterial drug paper sheet was placed in the plate using sterile tweezers. The plates were placed in a 37° C. incubator for 24 h. The diameter of inhibition zone was measured. 0.5% DMSO solution was used as the negative control. The diameter of inhibition zone was to measure the antibacterial activity. Inhibition zone≥17 mm, sensitive; inhibition zone=15 mm-16 mm, intermediate; inhibition zone≤14 mm, resistant.

[2] = test system: multi-drug resistant Staphylococcus aureus 18-171; conditions: strain 18-171; LB agar, 37° C., 24 h; control drugs 30 μg/tablet, extract 128 μg/tablet; ≥17 mm sensitive, 15-16 mm intermediate, ≤14 mm resistant
[3] = test system: multi-drug resistant Pseudomonas aeruginosa 18-261; conditions: strain 18-261; LB agar, 37° C., 24 h; control drugs 30 μg/tablet, extract 128 μg/tablet; ≥17 mm sensitive, 15-16 mm intermediate, ≤14 mm resistant
Method: as §1, §2, §3, §4, §5

Row | Compound | Diameter of Inhibition Zone [1] | Diameter of Inhibition Zone [2] | Diameter of Inhibition Zone [3]
1 | CN[C@H](CC(C)C)C(=O)N[C@H]1C(=O)N[C@@H](CC(N)=O)C(=O)N[C@H]2C(=O)N[C@H]3C(=O)N[C@H](C(=O)N[C@H](C(=O)O)c4cc(O)cc(O)c4-c4cc3ccc4O)[C@H](O)c3ccc(c(Cl)c3)Oc3cc2cc(c3O[C@@H]2O[C@H](CO)[C@@H](O)[C@H](O)[C@H]2O[C@H]2C[C@](C)(N)[C@H](O)[C@H](C)O2)Oc2ccc(cc2Cl)[C@H]1O [vancomycin] | 23 mm | 17 mm | 
2 | Cc1nnc(SCC2=C(C(=O)O)N3C(=O)[C@@H](NC(=O)Cn4cnnn4)[C@H]3SC2)s1 [cefazolin sodium] | 10 mm | 0 mm | 0 mm
3 | gentamicin | 18 mm | 16 mm | 17 mm
